Data taken from patent publication US6960584B2 (Merck & Co., Inc., priority 2001, dated 2005).

How the values were obtained:
Assay type in all cases: biochemical
PKC (mix of isoforms) = test: PKC assay (counter screen); conditions: myelin basic protein substrate; read-out: Counter screens IC50 (μM) PKC
Protocol: Final assay concentrations were as follows: 0.25 mM EGTA, 0.4 mM CaCl, 20 mM Tris pH 7.5, 10 mM MgCl, 1 mM 2-mercaptoethanol, 0.32 mg/ml phosphatidylserine, 0.032 mg/ml diacylglycerol, 10 μM ^33P-ATP, 70 μg/ml MBP, 10 ng/ml PKC, 0.1 mg/ml BSA.
Assays are performed using 96 deep well assay plates. In each assay well 10 μl of solvent control or appropriate inhibitor dilution with 5 μl ^33P-ATP (components #5 and #3) were premixed. In a separate tube, a mixture containing equal volumes of components #1, #2, #4, and #6 was prepared. The assay reaction was initiated by adding 35 μl of the components #1, #2, #4, and #6 mixture to wells containing ^33P-ATP and inhibitor. The liquid in the assay wells was thoroughly mixed and the assay reactions incubated for 20 minutes at room temperature. The reactions were stopped by adding 100 mM EDTA (50 μl) and 100 mM sodium pyrophosphate (50 μl) and mixing. Phosphorylated MBP was collected on PVDF membranes in 96 well filter plates and quantitated by scintillation counting.

Akt2 = target: T1, Akt2 (Homo sapiens, UniProt P31751); test: Akt kinase assay, phosphorylation of GSK3-derived peptide
T1 construct: a middle T tag was added to the 5′ end of the full length Akt2 using the PCR primer; biotin tag (from pS2neo vector); made in house; host or cells: Drosophila S2 cells
Text: (§1) This procedure describes a kinase assay which measures phosphorylation of a biotinylated GSK3-derived peptide by human recombinant active Akt/PBK isoforms or Akt/PBK mutants. The ^33P-labeled biotinylated product can be captured and detected using Streptavidin coated Flashplates (NEN LifeSciences) or Streptavidin Membrane Filter Plates (Promega). Alternatively, a GSK3-derived peptide with 2 added lysine residues was used as the substrate and subsequently captured using Phosphocellulose Membrane Filter Plates (Polyfiltronics).
(§2) Active human Akt: The following active human Akt isoforms were utilized in the in vitro assays: active human Akt1 (obtained from Upstate Biotechnology, catalog no. 14-276, 15 μg/37 μl (6.76 μM)) or recombinant lipid activated Akt1 (prepared as described in Example 5); Akt2 (prepared as described in Example 5); Akt3 (prepared as described in Example 5); and delta PH-Akt1 (prepared as described in Example 5).
(§3) Akt specific peptide substrate: GSK3α (S21) Peptide #3928, biotin-[…] (SEQ.ID.NO.: 15), FW=1517.8 (obtained from Macromolecular Resources) for Streptavidin Flashplate or Streptavidin Filter Plate detection.
(§4) GSK3α (S21) Peptide #G80613, […] (SEQ.ID.NO.: 14), FW=1547.8 (obtained from Research Genetics) for Phosphocellulose filter plate detection.
(§5) • B. Active Akt (500 nM): Diluent (1× Assay buffer, 10% glycerol, 0.1% β-mercaptoethanol, 1.0 μM microcystin LR and 1.0 mM EDTA) was added to a vial containing 37 μl of active Akt isoform (6.76 μM). Aliquots were flash frozen in liquid N2 and stored at −70° C. • C. […] Procedure for Streptavidin Flash Plate Assay: Step 1: […]
(§6) The plates were covered with sealing tape and counted using the Packard TopCount with the appropriate settings for counting [^33P] in Flashplates. […]
(§7) The bottom of the plate was sealed with white backing tape, 30 μl/well of Microscint 20 (Packard Instruments, catalog no. 6013621) was added. The top of the plate was sealed with clear sealing tape, and the plate then counted using the Packard TopCount with the appropriate settings for [^33P] with liquid scintillant. […]

Akt3 = target: T2, Akt3 (Homo sapiens, UniProt Q9Y243); test: as above
T2 construct: a middle T tag was added to the 5′ end of the full length Akt3 clone using the PCR primer; biotin tag (from pS2neo vector); made in house; host or cells: Drosophila S2 cells
Text: as §1, §2, §3, §4, §5, §6, §7

active human Akt1 = target: T3, active human Akt1 (Homo sapiens, UniProt P31749); test: as above; conditions: GSK3 peptide substrate; read-out: GSK3 Peptide Substrate IC50 (μM) Akt-1
T3 construct: purchased Upstate Biotechnology 14-276
Text: as §1, §2, §3, §4, §5, §6, §7

delta PH-Akt1 = target: T4, delta PH-Akt1 (Homo sapiens, UniProt P31749); test: as above
T4 construct: PCR deletion mutagenesis was done using the full length Akt1 gene in the pS2neo vector as template; biotin tag (from pS2neo vector); made in house; host or cells: Drosophila S2 cells
Protocol: For the expression of a pleckstrin homology domain (PH) deleted (Δ aa 4-129, which includes deletion of a portion of the Akt1 hinge region) version of Akt1, PCR deletion mutagenesis was done using the full length Akt1 gene in the pS2neo vector as template. The PCR was carried out in 2 steps using overlapping internal primers (5′[…]Δ[…] 3′ (SEQ.ID.NO.: 6), and 5′[…]Δ[…] TATTC 3′ (SEQ.ID.NO.: 7)) which encompassed the deletion and 5′ and 3′ flanking primers which encompassed the KpnI site and middle T tag on the 5′ end. The final PCR product was digested with KpnI and SmaI and ligated into the pS2neo full length Akt1 KpnI/Sma I cut vector, effectively replacing the 5′ end of the clone with the deleted version.
as §1, with “(Polyfiltronics). […]” for “(Polyfiltronics).”
as §6

PKA catalytic subunit = target: T5, PKA catalytic subunit (Bos taurus, UniProt P00517); test: PKA assay (counter screen)
T5 construct: purchased UBI (Upstate Biotechnology) 14-114
Protocol: Each individual PKA assay consists of the following components: • 1) 10 μl 5×PKA assay buffer (200 mM Tris pH7.5, 100 mM MgCl2, 5 mM 2-mercaptoethanol, 0.5 mM EDTA) • 2) 10 μl of a 50 μM stock of Kemptide (Sigma) diluted into water • 3) 10 μl ^33P-ATP (prepared by diluting 1.0 μl ^33P-ATP [10 mCi/ml] into 200 μl of a 50 μM stock of unlabeled ATP) • 4) 10 μl appropriate solvent control dilution or inhibitor dilution • 5) 10 μl of a 70 nM stock of PKA catalytic subunit (UBI catalog #14-114) diluted in 0.5 mg/ml BSA
The final assay concentrations were 40 mM Tris pH 7.5, 20 mM MgCl2, 1 mM 2-mercaptoethanol, 0.1 mM EDTA, 10 μM Kemptide, 10 μM ^33P-ATP, 14 nM PKA and 0.1 mg/ml BSA.
Assays were assembled in 96 deep-well assay plates. Components #3 and #4 were premixed and in a separate tube, a mixture containing equal volumes of components #1, #2, and #5 was prepared. The assay reaction was initiated by adding 30 μl of the components #1, #2, and #5 mixture to wells containing ^33P-ATP and inhibitor. The liquid in the assay wells was mixed and the assay reactions incubated for 20 minutes at room temperature. […]
The enzyme reaction product (phosphorylated Kemptide) was quantitated using p81 phosphocellulose 96 well filter plates (Millipore). […] 30 μl scintillation fluid was added to each well and the filters counted on a TopCount (Packard).

T3 sequence (P31749 whole entry): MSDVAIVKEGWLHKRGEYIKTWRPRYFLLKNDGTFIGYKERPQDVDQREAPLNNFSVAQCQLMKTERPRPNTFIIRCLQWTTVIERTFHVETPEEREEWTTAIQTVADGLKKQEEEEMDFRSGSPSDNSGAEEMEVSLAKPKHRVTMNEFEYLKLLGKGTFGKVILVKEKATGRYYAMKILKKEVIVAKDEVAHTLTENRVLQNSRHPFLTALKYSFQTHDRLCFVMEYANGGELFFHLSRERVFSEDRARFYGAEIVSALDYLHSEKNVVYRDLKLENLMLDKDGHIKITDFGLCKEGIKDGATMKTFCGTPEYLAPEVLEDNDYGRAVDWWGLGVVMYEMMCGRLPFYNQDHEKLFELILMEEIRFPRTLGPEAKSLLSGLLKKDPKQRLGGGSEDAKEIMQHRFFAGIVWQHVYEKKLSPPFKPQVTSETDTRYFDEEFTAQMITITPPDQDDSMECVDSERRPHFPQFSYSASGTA
T1 sequence (P31751 whole entry): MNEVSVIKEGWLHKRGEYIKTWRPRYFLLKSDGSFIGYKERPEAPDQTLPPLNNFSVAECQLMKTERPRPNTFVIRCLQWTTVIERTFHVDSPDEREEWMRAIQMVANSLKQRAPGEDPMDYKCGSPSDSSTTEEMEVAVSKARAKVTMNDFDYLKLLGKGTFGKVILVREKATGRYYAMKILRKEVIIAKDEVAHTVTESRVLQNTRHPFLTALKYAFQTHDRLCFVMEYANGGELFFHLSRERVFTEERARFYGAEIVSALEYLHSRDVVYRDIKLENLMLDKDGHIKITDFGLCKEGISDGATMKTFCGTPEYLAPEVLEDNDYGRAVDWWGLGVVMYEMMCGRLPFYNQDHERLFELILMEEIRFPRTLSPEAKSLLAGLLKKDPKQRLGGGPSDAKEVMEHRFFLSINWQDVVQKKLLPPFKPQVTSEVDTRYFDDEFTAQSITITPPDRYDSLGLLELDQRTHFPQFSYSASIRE
T4 sequence (P31749 with tags, fused parts or gaps): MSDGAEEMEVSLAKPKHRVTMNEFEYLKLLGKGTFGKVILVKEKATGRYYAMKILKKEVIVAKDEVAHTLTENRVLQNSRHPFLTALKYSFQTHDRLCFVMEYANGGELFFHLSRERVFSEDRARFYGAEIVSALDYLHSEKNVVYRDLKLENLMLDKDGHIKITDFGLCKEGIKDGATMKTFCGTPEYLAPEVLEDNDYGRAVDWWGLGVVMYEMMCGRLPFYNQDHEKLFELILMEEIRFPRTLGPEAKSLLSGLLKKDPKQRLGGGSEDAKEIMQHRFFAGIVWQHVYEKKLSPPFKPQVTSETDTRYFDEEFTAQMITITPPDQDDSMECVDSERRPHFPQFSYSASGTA
T2 sequence (Q9Y243 whole entry): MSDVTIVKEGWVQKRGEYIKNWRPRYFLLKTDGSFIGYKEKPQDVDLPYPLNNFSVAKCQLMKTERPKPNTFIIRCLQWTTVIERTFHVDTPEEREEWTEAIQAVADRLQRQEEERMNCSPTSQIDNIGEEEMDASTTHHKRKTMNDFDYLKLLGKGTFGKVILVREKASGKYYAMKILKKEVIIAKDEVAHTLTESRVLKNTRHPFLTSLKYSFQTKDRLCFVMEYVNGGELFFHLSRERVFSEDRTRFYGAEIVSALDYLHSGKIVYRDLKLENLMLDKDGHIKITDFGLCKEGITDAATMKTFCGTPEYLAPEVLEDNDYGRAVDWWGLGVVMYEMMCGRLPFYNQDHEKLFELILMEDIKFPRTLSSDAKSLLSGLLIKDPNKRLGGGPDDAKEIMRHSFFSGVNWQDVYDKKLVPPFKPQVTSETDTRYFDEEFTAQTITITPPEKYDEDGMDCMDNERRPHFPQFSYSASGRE

| Compound | IC50 (PKC (mix of isoforms)) [µM] | IC50 (Akt2) [µM] | IC50 (Akt3) [µM] | IC50 (active human Akt1) [µM] | IC50 (delta PH-Akt1) [µM] | IC50 (PKA catalytic subunit) [µM] |
| --- | --- | --- | --- | --- | --- | --- |
| OCCOc1nn2c(-c3ccccc3)nnc2cc1-c1ccccc1 [Compound 1, 6-(2-Hydroxyethyl)oxy-3,7-diphenyl-[1,2,4]triazolo[4,3-b]pyridazine] | > 40 | – | – | – | – | – |
| OCCCCOc1nn2c(-c3ccccc3)nnc2cc1-c1ccccc1 [Compound 2] | > 40 | > 50 | > 50 | 4.65 | > 50 | > 40 |
